Results reported in patent US20170304388A1, “NEW INDICATION OF CARDIOVASCULAR DRUGS FOR PREPARATION OF CANCER INHIBITION PHARMACEUTICAL COMPOSITION” (LAUNX BIOMEDICAL CO., LTD., priority 2014, published 2017).

Tests used:
Format in all cases: cell-based
[1] = test system: MKN-45 (Gastric Adenocarcinoma); assay: Cell viability analysis (WST-1), MKN-45; settings: Table 4, repeated experiments, drug 10 μM
[2] = test system: AsPC-1; assay: Cell viability analysis (WST-1), AsPC-1; settings: Table 4, repeated experiments, drug 10 μM
Outline: (§1)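 Seeded at 3000 cells per well, then exposed to drug at 10 μM for 72 h. Viability measured by WST-1 reagent (1:10 in medium) for 30–90 min at 37° C, read as OD450, expressed as survival rate.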

[3] = test system: PC3 (Prostate Adenocarcinoma); assay: Cell viability analysis (WST-1), PC3; settings: Table 4, repeated experiments, drug 10 μM
[4] = test system: BxPC-3; assay: Cell viability analysis (WST-1), BxPC-3; settings: Table 4, repeated experiments, drug 10 μM
Outline: as §1

[5] = test system: cancer cell lines; assay: Growth inhibitory effects on the panel of cancer cell lines; settings: drug 10 μM, 72 hours, WST-1
[6] = test system: MDA-MB231; assay: Cell viability analysis (WST-1), MDA-MB231; settings: Table 4, repeated experiments, drug 10 μM
[7] = test system: C-33A; assay: Cell viability analysis (WST-1), C-33A; settings: Table 4, repeated experiments, drug 10 μM
Outline: as §1

[8] = test system: HCT116 (Colorectal Carcinoma); assay: Cell viability analysis (WST-1), HCT116; settings: Table 4, repeated experiments, drug 10 μM
[9] = test system: LoVo (Colorectal Adenocarcinoma); assay: Cell viability analysis (WST-1), LoVo; settings: Table 4, repeated experiments, drug 10 μM
[10] = test system: 786-O; assay: Cell viability analysis (WST-1), 786-O; settings: Table 4, repeated experiments, drug 10 μM
Outline: as §1

[11] = test system: AGS (Gastric Adenocarcinoma); assay: Cell viability analysis (WST-1), AGS; settings: Table 4, repeated experiments, drug 10 μM
[12] = test system: NIH-OVCAR-3; assay: Cell viability analysis (WST-1), NIH-OVCAR-3; settings: Table 4, repeated experiments, drug 10 μM
Outline: as §1

[13] = test system: H1650 (Lung Adenocarcinoma); assay: Cell viability analysis (WST-1), H1650; settings: Table 4, repeated experiments, drug 10 μM
[14] = test system: T24; assay: Cell viability analysis (WST-1), T24; settings: Table 4, repeated experiments, drug 10 μM
Outline: as §1

[15] = test system: A549 (Lung Adenocarcinoma); assay: Cell viability analysis (WST-1), A549; settings: Table 4, repeated experiments, drug 10 μM
[16] = test system: U2OS; assay: Cell viability analysis (WST-1), U2OS; settings: Table 4, repeated experiments, drug 10 μM
Outline: as §1

[17] = test system: Hep3B; assay: Cell viability analysis (WST-1), Hep3B; settings: Table 4, repeated experiments, drug 10 μM
Outline: as §1

[18] = test system: HeLa (Cervix Adenocarcinoma); assay: Cell viability analysis (WST-1), HeLa; settings: Table 4, repeated experiments, drug 10 μM
[19] = test system: HepG2 (Hepatocellular Carcinoma); assay: Cell viability analysis (WST-1), HepG2; settings: Table 4, repeated experiments, drug 10 μM
[20] = test system: MCF7 (Mammary Gland, Adenocarcinoma); assay: Cell viability analysis (WST-1), MCF7; settings: Table 4, repeated experiments, drug 10 μM
[21] = test system: TOV-21G; assay: Cell viability analysis (WST-1), TOV-21G; settings: Table 4, repeated experiments, drug 10 μM
Outline: as §1

[22] = test system: SAS; assay: Cell viability analysis (WST-1), SAS; settings: Table 4, repeated experiments, drug 10 μM
Outline: as §1

[23] = test system: TSGH-8301 (Urinary Bladder Carcinoma); assay: Cell viability analysis (WST-1), TSGH-8301; settings: Table 4, repeated experiments, drug 10 μM
[24] = test system: A375 (Amelanotic Melanoma); assay: Cell viability analysis (WST-1), A375; settings: Table 4, repeated experiments, drug 10 μM
[25] = test system: BCC; assay: Cell viability analysis (WST-1), BCC; settings: Table 4, repeated experiments, drug 10 μM

CC(C)c1c(C(=O)Nc2ccccc2)c(-c2ccccc2)c(-c2ccc(F)cc2)n1CC[C@@H](O)C[C@@H](O)CC(=O)[O-].CC(C)c1c(C(=O)Nc2ccccc2)c(-c2ccccc2)c(-c2ccc(F)cc2)n1CC[C@@H](O)C[C@@H](O)CC(=O)[O-].[Ca+2] [Atorvastatin calcium (Lipitor), Atorvastatin calcium]
survival rate (viability) of cancer cells, MKN-45 ([1]; 72 hours, WST-1): 84.18 | survival rate (viability) of cancer cells, AsPC-1 ([2]; 72 hours): 81.1 | survival rate (viability) of cancer cells, PC-3 ([3]; 72 hours, WST-1): 56.4832 | survival rate (viability) of cancer cells, BxPC-3 ([4]; 72 hours): 81.03 | inhibition effect on different cancer cell lines (in words) [5]: significant inhibition effect | survival rate (viability) of cancer cells, MDA-MB231 ([6]; 72 hours): 47.84 | survival rate (viability) of cancer cells, C-33A ([7]; 72 hours): 96.95 | survival rate (viability) of cancer cells, HCT116 ([8]; 72 hours, WST-1): 82.55 | survival rate (viability) of cancer cells, LoVo ([9]; 72 hours, WST-1): 103.0307 | survival rate (viability) of cancer cells, 786-O ([10]; 72 hours): 32.54 | survival rate (viability) of cancer cells, AGS ([11]; 72 hours, WST-1): 31.48 | survival rate (viability) of cancer cells, NIH-OVCAR-3 ([12]; 72 hours): 98.3 | survival rate (viability) of cancer cells, H1650 ([13]; 72 hours, WST-1): 69.55 | survival rate (viability) of cancer cells, T24 ([14]; 72 hours): 78.47 | survival rate (viability) of cancer cells, A549 ([15]; 72 hours, WST-1): 90.1462 | survival rate (viability) of cancer cells, U2OS ([16]; 72 hours): 86.25 | survival rate (viability) of cancer cells, Hep3B ([17]; 72 hours): 91.86 | survival rate (viability) of cancer cells, HeLa ([18]; 72 hours, WST-1): 78.64 | survival rate (viability) of cancer cells, HepG2 ([19]; 72 hours, WST-1): 95.92 | survival rate (viability) of cancer cells, MCF-7 ([20]; 72 hours, WST-1): 79.08 | survival rate (viability) of cancer cells, TOV-21G ([21]; 72 hours): 34.04 | survival rate (viability) of cancer cells, SAS ([22]; 72 hours): 76.29 | survival rate (viability) of cancer cells, TSGH-8301 ([23]; 72 hours, WST-1): 70.59 | survival rate (viability) of cancer cells, A375 ([24]; 72 hours, WST-1): 23.01 | survival rate (viability) of cancer cells, BCC ([25]; 72 hours): 41.49

OC(CNCC(O)C1CCc2cc(F)ccc2O1)C1CCc2cc(F)ccc2O1 (centres unmarked) [Nebivolol(Bystolic), Nebivolol]
viability at 10 µM ([1]; Homo sapiens, MKN-45, 72 h, WST-1, read-out: survival rate (viability) of cancer cells, MKN-45): 52.8% | viability at 10 µM ([2]; Homo sapiens, ASPC1, 72 h, read-out: survival rate (viability) of cancer cells, AsPC-1): 88.7% | viability at 10 µM ([3]; 72 h, WST-1, read-out: survival rate (viability) of cancer cells, PC-3): 37% | viability at 10 µM ([4]; Homo sapiens, BXPC-3, 72 h, read-out: survival rate (viability) of cancer cells, BxPC-3): 74.4% | inhibition effect on different cancer cell lines (in words) [5]: significant inhibition effect | viability at 10 µM ([6]; Homo sapiens, MDA-MB-231, 72 h, read-out: survival rate (viability) of cancer cells, MDA-MB231): 66.4% | viability at 10 µM ([7]; Homo sapiens, C-33-A, 72 h, read-out: survival rate (viability) of cancer cells, C-33A): 77% | viability at 10 µM ([8]; Homo sapiens, HCT-116, 72 h, WST-1, read-out: survival rate (viability) of cancer cells, HCT116): 81.9% | viability at 10 µM ([9]; Homo sapiens, LoVo, 72 h, WST-1, read-out: survival rate (viability) of cancer cells, LoVo): 85.3% | viability at 10 µM ([10]; Homo sapiens, 786-0, 72 h, read-out: survival rate (viability) of cancer cells, 786-O): 38.3% | viability at 10 µM ([11]; 72 h, WST-1, read-out: survival rate (viability) of cancer cells, AGS): 26.6% | viability at 10 µM ([12]; Homo sapiens, OVCAR-3, 72 h, read-out: survival rate (viability) of cancer cells, NIH-OVCAR-3): 86.8% | viability at 10 µM ([13]; Homo sapiens, NCI-H1650, 72 h, WST-1, read-out: survival rate (viability) of cancer cells, H1650): 87.4% | viability at 10 µM ([14]; Homo sapiens, T-24, 72 h, read-out: survival rate (viability) of cancer cells, T24): 97.6% | viability at 10 µM ([15]; Homo sapiens, A549, 72 h, WST-1, read-out: survival rate (viability) of cancer cells, A549): 49% | viability at 10 µM ([16]; Homo sapiens, U2OS, 72 h, read-out: survival rate (viability) of cancer cells, U2OS): 66.6% | viability at 10 µM ([17]; Homo sapiens, Hep3B, 72 h, read-out: survival rate (viability) of cancer cells, Hep3B): 44.8% | viability at 10 µM ([18]; Homo sapiens, HeLa, 72 h, WST-1, read-out: survival rate (viability) of cancer cells, HeLa): 52% | viability at 10 µM ([19]; Homo sapiens, HepG2, 72 h, WST-1, read-out: survival rate (viability) of cancer cells, HepG2): 42.1% | viability at 10 µM ([20]; Homo sapiens, MCF7, 72 h, WST-1, read-out: survival rate (viability) of cancer cells, MCF-7): 27% | viability at 10 µM ([21]; Homo sapiens, TOV21G, 72 h, read-out: survival rate (viability) of cancer cells, TOV-21G): 86.2% | viability at 10 µM ([22]; 72 h, read-out: survival rate (viability) of cancer cells, SAS): 75.6% | viability at 10 µM ([23]; 72 h, WST-1, read-out: survival rate (viability) of cancer cells, TSGH-8301): 38% | viability at 10 µM ([24]; Homo sapiens, A-375, 72 h, WST-1, read-out: survival rate (viability) of cancer cells, A375): 44.9% | viability at 10 µM ([25]; BCC, 72 h, read-out: survival rate (viability) of cancer cells, BCC): 55.8%
